Assay results published in patent US8173689B2 (Novartis AG, priority 2006, dated 2012).
Read-outs that look alike come from different tables or passages of the source.

Tests used:
[1] = target: T1, kinase domain of cKIT (Homo sapiens, UniProt P10721); assay: Inhibition of cKIT kinase signaling in an in vitro biochemical assay (alphascreen); settings: tested at about 1 μM; for inhibition at 1 µM: compounds of Table 3, read-out: cKit percent inhibition
T1 construct: The kinase domain of cKIT was assayed in 50 mM Hepes; purchased Upstate 14-559
Method: (§1) The IC50 values for the inhibition of RTKs were determined in the alphascreen format measuring the inhibition by compound of phosphate transfer to a substrate by the respective enzyme. Briefly, the respective RTK domain purchased as human recombinant protein (cKIT Upstate #14-559, PDGFRb Invitrogen #P3082) were incubated with serial dilutions of compound in the presence of substrate and ATP concentrations within 3 times the Km of the enzyme.
(§2) Alphascreen PY20 beads were added to the stopped cKIT reactions and PY20 Ab/Protein A Alphascreen beads were added to the PDGFRβ stopped reactions. Both reactions were incubated overnight and read on the Alphascreen reader.

[2] = target: T2, cytoplasmic domain of the human CSF-1R (Homo sapiens, UniProt P07333); assay: In vitro kinase assay for colony stimulating factor-1 receptor (AlphaScreen); assay type: biochemical; settings: tested at about 1 μM; for inhibition at 1 µM: read-out: CSF-1R percent inhibition
T2 construct: Recombinant protein corresponding to the cytoplasmic domain of the human CSF-1R; purchased Invitrogen Corporation, Carlsbad, Calif; PV3249
T2 sequence (P07333 539-972 limits assumed): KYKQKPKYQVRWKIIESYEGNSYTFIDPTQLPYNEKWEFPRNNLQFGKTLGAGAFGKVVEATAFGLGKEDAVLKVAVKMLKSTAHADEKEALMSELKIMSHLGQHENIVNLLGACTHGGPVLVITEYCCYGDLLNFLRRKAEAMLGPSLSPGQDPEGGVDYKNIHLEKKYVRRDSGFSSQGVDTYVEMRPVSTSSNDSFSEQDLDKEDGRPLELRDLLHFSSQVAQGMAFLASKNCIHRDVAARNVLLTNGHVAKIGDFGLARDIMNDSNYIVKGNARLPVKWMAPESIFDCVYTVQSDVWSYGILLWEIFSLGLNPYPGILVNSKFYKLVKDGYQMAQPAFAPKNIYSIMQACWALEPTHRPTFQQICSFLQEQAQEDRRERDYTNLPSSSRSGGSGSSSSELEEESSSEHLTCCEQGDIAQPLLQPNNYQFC
Method: The kinase activity of various protein tyrosine kinases can be measured by providing ATP and a suitable peptide or protein tyrosine-containing substrate, and assaying the transfer of phosphate moiety to the tyrosine residue. Recombinant protein corresponding to the cytoplasmic domain of the human CSF-1R was purchased from Invitrogen Corporation, Carlsbad, Calif. U.S.A. (#PV3249). For each assay, test compounds were serially diluted, starting at 25 μM with 3 fold dilutions, in DMSO in 384 well plates then mixed with an appropriate kinase reaction buffer consisting of 50 mM Hepes, 5 mM MgCl2, 10 mM MnCl2, 0.1% BSA, pH 7.5, 1.0 mM dithiothreitol, 0.01% Tween 80 plus 1 μM ATP. […] Added to the stopped reaction mix was 30 μL of PT66 Alphascreen beads (Perkin Elmer, Boston, Mass., U.S.A.). The reaction was incubated overnight and read on the Envision (Perkin Elmer). Phosphorylated peptide product was measured with the AlphaScreen system (Perkin Elmer) using acceptor beads coated with anti-phosphotyrosine antibody PT66 and donor beads coated with streptavidin that emit a fluorescent signal at the 520-620 nm emission wave length if in close proximity.
CSF-1R kinase was added at final concentration of 4 nM.

[3] = target: T3, kinase domain of PDGFRβ (Homo sapiens, UniProt P09619); assay: Inhibition of PDGFRb kinase signaling in an in vitro biochemical assay (alphascreen); settings: tested at about 1 μM, read-out: PDGFRβ percent inhibition
T3 construct: The kinase domain of PDGFRβ was assayed in 50 mM Hepes; purchased Invitrogen P3082
Method: as §1, §2

T3 sequence (P09619 600-962 limits assumed): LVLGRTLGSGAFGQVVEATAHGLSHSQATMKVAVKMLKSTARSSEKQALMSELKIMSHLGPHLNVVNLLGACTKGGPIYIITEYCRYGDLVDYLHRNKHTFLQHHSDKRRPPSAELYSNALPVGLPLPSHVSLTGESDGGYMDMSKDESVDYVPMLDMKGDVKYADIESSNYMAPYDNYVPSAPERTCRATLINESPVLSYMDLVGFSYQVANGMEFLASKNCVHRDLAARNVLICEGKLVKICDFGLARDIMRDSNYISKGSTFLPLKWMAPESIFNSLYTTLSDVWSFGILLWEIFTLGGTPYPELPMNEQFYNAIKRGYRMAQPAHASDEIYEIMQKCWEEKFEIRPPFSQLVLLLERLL
T1 sequence (P10721 589-937 limits assumed): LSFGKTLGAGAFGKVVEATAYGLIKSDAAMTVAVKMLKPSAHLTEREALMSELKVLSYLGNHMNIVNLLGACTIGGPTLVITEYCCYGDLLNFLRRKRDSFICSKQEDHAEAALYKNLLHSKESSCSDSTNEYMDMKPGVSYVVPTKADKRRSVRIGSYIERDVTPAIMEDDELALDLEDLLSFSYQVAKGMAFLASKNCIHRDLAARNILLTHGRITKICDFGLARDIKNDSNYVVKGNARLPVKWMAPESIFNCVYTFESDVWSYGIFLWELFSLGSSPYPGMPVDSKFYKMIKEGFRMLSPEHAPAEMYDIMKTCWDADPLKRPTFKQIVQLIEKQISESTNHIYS

| Compound | inhibition at 1 µM [2] [%] | inhibition at 1 µM [3] [%] | other results |
| --- | --- | --- | --- |
| CNC(=O)c1cnccc1Oc1ccc2nc(N[C@@H]3CCCC[C@H]3O)sc2c1 [Example 291, 4-(2-((1R,2R)-2-hydroxycyclohexylamino)benzo[d]thiazol-6-yloxy)-N-methylnicotinamide] | – | – | inhibition at 1 µM [1]: 4%; inhibition at 1 µM ([2]; compounds of Table 3): 48%; inhibition at 1 µM ([3]; compounds of Table 3): 0% |
| CC(=O)N[C@H]1CCN(c2cc(Oc3ccc4nc(N[C@@H]5CCCC[C@H]5O)sc4c3)ccn2)C1 [Cmpd 178, N-((S)-1-(4-(2-((1R,2R)-2-hydroxycyclohexylamino)benzo[d]thiazol-6-yloxy)pyridin-2-yl)pyrrolidin-3-yl)acetamide] | – | – | inhibition at 1 µM [1]: 17%; inhibition at 1 µM ([2]; compounds of Table 3): 82%; inhibition at 1 µM ([3]; compounds of Table 3): -3% |
| CNC(=O)c1cc(Oc2ccc3nc(Nc4ccccc4CCN4CCCC4)oc3c2)ccn1 [Compound 43, 4-{2-[2-(2-Pyrrolidin-1-yl-ethyl)-phenylamino]-benzooxazol-6-yloxy}-pyridine-2-carboxylic acid methylamide] | 26 | 15 | – |
| CNC(=O)c1cc(Oc2ccc3nc(NC4CCOCC4)oc3c2)ccn1 [Compound 30, 4-[2-(Tetrahydro-pyran-4-yl-amino)-benzooxazol-6-yloxy]-pyridine-2-carboxylic acid methylamide] | 25 | 14 | – |
| CNC(=O)c1cc(Oc2ccc3nc(N[C@@H](CO)c4ccccc4)oc3c2)ccn1 [Compound 37, 4-[2-((R)-2-Hydroxy-1-phenyl-ethylamino)-benzooxazol-6-yloxy]-pyridine-2-carboxylic acid methylamide] | 79 | 16 | – |
| 4-[2-(Benzo[1,3]dioxol-5-yl- amino)-benzooxazol-6- yloxy]-pyridine-2-carboxylic acid methylamide [Compound 95] | – | – | cKit percent inhibition ([1]; compounds of Table 4): 42%; CSF-1R percent inhibition ([2]; compounds of Table 4): 100% |
| CNC(=O)c1cc(Oc2ccc3nc(NC(C)c4nccs4)oc3c2)ccn1 (stereo not drawn) [Compound 6, 4-[2-(1-Thiazol-2-yl-ethylamino)-benzooxazol-6-yloxy]-pyridine-2-carboxylic acid methylamide] | 85 | – | – |
| CNC(=O)c1cc(Oc2ccc3nc(NC4CCCC4)oc3c2)ccn1 [Compound 23, 4-(2-Cyclopentylamino-benzooxazol-6-yloxy)-pyridine-2-carboxylic acid methylamide] | 50 | 0 | – |
| CNC(=O)c1cc(Oc2ccc3nc(N[C@H](C(=O)NC)c4ccccc4)oc3c2)ccn1 [Compound 39, 4-{2-[((S)-Methylcarbamoyl-phenyl-methyl)-amino]-benzooxazol-6-yloxy}-pyridine-2-carboxylic acid methylamide] | 67 | 10 | – |
| CNC(=O)c1cc(Oc2ccc3nc(N[C@@H](C)c4ccc5ccccc5c4)oc3c2)ccn1 [Compound 20, 4-[2-((S)-1-Naphthalen-2-yl-ethylamino)-benzooxazol-6-yloxy]-pyridine-2-carboxylic acid methylamide] | 15 | 0 | – |
| CNC(=O)c1cc(Oc2ccc3nc(Nc4ccccc4-n4cnc(C)c4)oc3c2)ccn1 [Compound 45, 4-{2-[2-(4-Methyl-imidazol-1-yl)-phenylamino]-benzooxazol-6-yloxy}-pyridine-2-carboxylic acid methylamide] | 11 | 14 | – |
| CNC(=O)c1cc(Oc2ccc3nc(N[C@@H](C(=O)O)c4ccccc4)oc3c2)ccn1 [Compound 35, (R)-[6-(2-Methylcarbamoyl-pyridin-4-yloxy)-benzooxazol-2-ylamino]-phenyl-acetic acid] | 19 | 9 | – |
| CNC(=O)c1cc(Oc2ccc3nc(N[C@H](C(=O)O)c4ccccc4)oc3c2)ccn1 [Compound 38, (S)-[6-(2-Methylcarbamoyl-pyridin-4-yloxy)-benzooxazol-2-ylamino]-phenyl-acetic acid] | 34 | 14 | – |
